Test results reported in patent US20020037903A1, “Use of pyrimidine endothelin antagonists in companion animals” (priority 2000, published 2002).
Where two headings read alike, the source gives them in different places.

Key:
ETB receptors = molecular target: T1, ETB receptors (Homo sapiens, UniProt P24530); settings: in man; cited from earlier work
T1 construct: host or cells: man (in vivo)
T1 sequence (P24530 27-442): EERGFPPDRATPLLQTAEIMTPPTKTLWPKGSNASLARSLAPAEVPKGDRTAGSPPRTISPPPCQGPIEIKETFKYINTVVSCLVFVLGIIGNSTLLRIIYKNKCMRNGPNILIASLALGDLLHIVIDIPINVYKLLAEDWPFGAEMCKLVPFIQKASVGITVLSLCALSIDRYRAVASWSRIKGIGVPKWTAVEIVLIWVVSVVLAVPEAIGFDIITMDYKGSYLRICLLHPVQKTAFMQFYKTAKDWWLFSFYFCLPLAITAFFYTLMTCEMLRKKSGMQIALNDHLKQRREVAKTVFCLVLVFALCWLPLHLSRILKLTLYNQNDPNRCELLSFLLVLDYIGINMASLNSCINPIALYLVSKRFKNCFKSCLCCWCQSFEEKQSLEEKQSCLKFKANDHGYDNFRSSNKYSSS

ETA/B receptor = settings: hypertensive patients; cited from earlier work
[1] = Test B(b): plasma protein binding by equilibrium dialysis; format: in vitro ADME; settings: dog, canine plasma
From the text: (b) Determination of plasma protein binding by equilibrium dialysis
An example of a method used is described below.
Plasma containing the test compound was placed in a chamber (half-cell), separated by a semi-permeable membrane (Spectra/Por™ 1 47 mm diam MWCO 6-8000) from isotonic buffer at physiological pH in the other half-cell. The system was allowed to equilibrate, such that low molecular weight compounds distributed evenly between the two chambers (plasma and buffer), whilst high molecular weight molecules were restricted to the plasma chamber. At equilibrium the concentration of the unbound test compound is the same on either side of the membrane. The concentration of total test compound in each half-cell was then determined (using essentially the described above) and the extent of plasma protein binding calculated.
The Spectra/Por™ Equilibrium Dialyzer used to determine protein binding was supplied by NBS Biologicals.

[2] = tested on: dog renal artery strips (ET-1-induced contraction); experiment: Test A: inhibition of contraction induced by ET-1 in dog renal artery strips to generate Kb values; format: cell-based, beagle dogs; settings: Canis lupus familiaris, 1.25 h, ET-1 contraction, 75 minutes incubation with test compound, single concentration, read-out: Apparent Kb
From the text: Inhibition of Contraction Induced by ET-1 in Dog Renal Artery Strips to Generate Kb Values
A Kb value is a measure of functional activity, and this is taken to be the free plasma concentration of a test compound required to provide efficacy.
Renal arteries from beagle dogs (body weight 9-15 kg) were cut into spirals and divided into 5 mm long strips. The side of each strip that was adjacent to the lumen of the vessel was gently rubbed to remove the endothelium. […] The tension generated by each strip was recorded isometrically. After incubating the tissues with test compound for 75 minutes, cumulative concentration response curves were constructed to ET-1 in the presence of 10 μM Bestatin, 10 μM Captopril, 10 μM Thiorphan, 50 μM indomethacin and 0.001% BSA. Only a single ET-1 curve was constructed in each tissue and tension increases expressed as a percentage of the response to 120mM KCl determined before the addition of the test compound. […] This is the ratio of the EC50 in the presence of the test compound divided by the EC50 in its absence. The DR is then put into the following equation:
apparent pKb=log(DR−1)−log[B] (where B=molar concentration of test compound)

[3] = tested on: ET-1-induced pressor response; experiment: Test C: inhibition of ET-1-induced pressor response in conscious beagle dogs; format: in vivo
Description: Inhibition of ET-1-induced Pressor Response in Conscious Beagle Dogs
Studies were performed in surgically prepared conscious beagle dogs (13-17 kg) which were well adjusted to the laboratory environment. Surgical preparation was performed under recovery anaesthesia to insert an indwelling aortic catheter with external access between the scapulae and protruding subcutaneous ECG studs, positioned for the recording of lead 11 electrocardiograms. During studies dogs were placed, unrestrained, in “Pavlov” type slings. The aortic catheter was connected to a pressure transducer for the measurement of systemic arterial pressure and ECG studs, via patient cables, to a bio-amplifier for the recording of electrocardiograms. ET-1 was administered as a 15 min infusion (25 pmoles/kg/min) via a temporary catheter inserted into the saphenous vein. Test compound or placebo was administered by oral gavage (0.5 or 2.0 mg/kg) at 1 and 24 hours prior to the infusion of ET-1. Individual studies investigated no more than a single dose of test compound or placebo at any one time. Systemic arterial pressure and electrocardiograms were recorded for one hour prior to and one hour after the start of the infusion of ET-1. Test compounds were evaluated by comparing the effects of placebo or test compound on the magnitude of pressor response elicited by ET-1.

[4] = tested on: dogs with pacing-induced CHF; experiment: Congestive heart failure induced by rapid ventricular pacing in dogs; format: in vivo
Description: A group of animals receiving ACE-inhibitor treatment served as positive control.
Heart failure was induced by rapid ventricular pacing, which is a well established and extensively documented model It is the only heart failure model that allows control of the degree of heart failure by adjusting the pacing rate.
Dogs were paced throughout the study at pacing rates up to 220-240 bpm leading to steadily progressing CHF.
Group 1: Placebo (Furosemide 4 mg/kg/day BID per os, n=6)
Group 2: ET-receptor antagonist (2 mg/kg/day SID per os+Furosemide as above, n=6)
Group 3: Enalapril maleate (1 mg/kg/day BID per os+Furosemide as above)
(n=6, positive control) was initiated 2 weeks after start of pacing and continued for 3 weeks.
Throughout the study, both clinical parameters (heart murmurs, edema formation, dyspnoe) as well as haemodynamic (CO, blood pressure, cardiac contractility, and heart rate) and humoral parameters (plasma catecholamines, ANF, ET-1) were measured to determine morbidity and quality of life of the animals.
Dosing of the animals during the 3-week treatment period took place BID@8 am and 4 pm:
Improvement in cardiac function is illustrated by the effect of Compound X on the left ventricular enddiastolic pressure (LVEDP) in resting dogs before and during progressive CHF induced by pacing at […]. Test compounds were given for 3 weeks while pacing continued. In the graph below, the Y-axis is LVEDP in mm, and the X-axis is the time in weeks. […] [In the study, 5 dogs were treated with placebo, 3 dogs were treated with enalapril, and 5 dogs were treated with Compound X] [drawing 5]
Dogs were paced for 2 weeks to develop CHF and then assigned to oral gavage treatment with either placebo (vehicle), Compound X (2 mg/kg/day, sid), or enalapril (1 mg/kg/day, bid). In addition, all animals received the diuretic furosemide (4 mg/kg/day, bid) throughout treatment period. During the 3-week treatment period, rapid ventricular pacing was continued. Pacing led to deterioration of myocardial and circulatory function with progression of CHF as indicated by increases in left ventricular enddiastolic pressure (LVEDP) and reductions of cardiac contractility and output. In addition, all animals were assessed for clinical parameters of CHF by an independent veterinarian.
Throughout the study dogs were studied twice weekly at rest and during standardised exercise on a treadmill at two different speeds.

[5] = Test B: pharmacokinetic study in the dog, plasma concentrations after i.v. infusion; format: in vivo; settings: for Estimated % of Kb at 24 hours following 2.0 mg/kg i.v. dose: 0.5 mg/kg value multiplied by 4; for % of Kb at 24 hours following 0.5 mg/kg i.v. dose: free plasma concentration as percentage of Kb from Test A; for concentration at 24 h: plasma, intravenous, 0.5 mg/kg
Description: In order to assess the potential of test ET antagonists to provide efficacy, a pharmacokinetic study in the dog was carried out.
Blood samples were taken at various time points and centrifuged to provide plasma samples. These samples were analysed using Mass Spectrometry to provide total plasma concentrations.
Total plasma concentrations in the dog were determined by comparison with the standard line constructed (using the spiked plasma samples) to cover the expected concentration range.
(c) Calculation of free plasma concentrations [formula] or % protein bound=(1−Fu)×100
The free plasma concentrations of the compound can then be determined.
Free plasma concentration=total plasma concentration (from method (a))×fraction unbound (from method (b))

neointimal formation = settings: after balloon angioplasty; cited from earlier work
heart disease in dogs = settings: veterinary clinical trial, dogs with heart disease; cited from earlier work
[6] = 2 mg/kg/day sid p.o. plus furosemide, 3 weeks
[7] = 0.5 mg/kg i.v. infusion over 10 minutes, read-out: Total plasma concentration at 24 hours following 0.5 mg/kg iv dose
[8] = total plasma concentration x fraction unbound, read-out: Free concentration at 24 hours following 0.5 mg/kg i.v. dose

fraction unbound [1]	Estimated % of Kb at 24 hours following 2.0 mg/kg i.v. dose [5] [%]	% of Kb at 24 hours following 0.5 mg/kg i.v. dose [5] [%]	concentration at 24 h [5, 7] [nM]	concentration at 24 h [5, 8] [nM]	Compound	Kb [2] [nM]	further results
–	–	–	–	–	CCCC[C@@H](NC(=O)[C@@H](Cc1cn(C(=O)OC)c2ccccc12)NC(=O)[C@H](CC(C)(C)C)NC(=O)N1[C@H](C)CCC[C@@H]1C)C(=O)O [BQ-788]	–	Effect on peripheral resistance (ETB receptors): increase peripheral resistance
–	–	–	–	–	COc1ccccc1Oc1c(NS(=O)(=O)c2ccc(C(C)(C)C)cc2)nc(-c2ncccn2)nc1OCCO [Bosentan]	–	Effect on blood pressure (ETA/B receptor): decreased blood pressure
0.12	<32	<8	< 93	< 11	COCCOc1nc(-c2ncccn2)nc(NS(=O)(=O)CCc2ccccc2)c1Oc1ccccc1OC [Example 2, WO 98/57938]	136	–
0.032	4.8	1.2	40	1.3	COc1cc(OC)nc(O[C@H](C(=O)O)C(OC)(c2ccccc2)c2ccccc2)n1 [LU 135,252]	111	–
–	–	–	–	–	CCCOc1ccc2c(c1)[C@@H](c1ccc(OC)cc1OCC(=O)O)[C@H](C(=O)O)[C@H]2c1ccc2c(c1)OCO2 [SB-209670]	–	Reduction in neointimal formation relative to control animals (neointimal formation): 50%
–	–	–	–	–	CCOC(=O)[C@H](CCc1ccccc1)N[C@@H](C)C(=O)N1CCC[C@H]1C(=O)O [enalapril]	–	Cardiac function (heart disease in dogs): did not improve cardiac function; Disease progression (heart disease in dogs): significant slow down in disease progression

Compound	fraction unbound [1]	Estimated % of Kb at 24 hours following 2.0 mg/kg i.v. dose [5] [%]	% of Kb at 24 hours following 0.5 mg/kg i.v. dose [5] [%]	concentration at 24 h [5, 7] [nM]	concentration at 24 h [5, 8] [nM]	Kb [2] [nM]	further results
COc1ccccc1Oc1c(NS(=O)(=O)CCc2ccccc2)nc(-c2ncccn2)nc1OC [Compound X, N-[6-methoxy-5-(2-methoxyphenoxy)-2-(2-pyrimidinyl)-4-pyrimidinyl]-2-phenylethansulphonamide]	0.09	196	49	466	41.9	86	Change in arterial pressure elicited by ET-1 ([3]; 0.5 mg/kg p.o., 1 hour prior to ET-1 infusion): 3 ΔmmHg; Change in arterial pressure elicited by ET-1 ([3]; 2.0 mg/kg p.o., 24 hours prior to ET-1 infusion): 3 ΔmmHg; inhibition at 0.5 mg/kg ([3]; Canis lupus familiaris, po, 0.5 mg/kg p.o., 1 hour prior to ET-1 infusion): 76%; inhibition at 2 mg/kg ([3]; Canis lupus familiaris, po, 2.0 mg/kg p.o., 24 hours prior to ET-1 infusion): 80%; Arterial blood pressure (BP) [4, 6]: lower arterial blood pressure; Cardiac output [4, 6]: maintained or even increased cardiac output; LVEDP at rest and during treadmill exercise [4, 6]: significantly improved LVEDP not only under resting conditions but even more so during treadmill exercise; LVEDP relative to pre-treatment values [4, 6]: lowered LVEDP below pre-treatment values; Left ventricular enddiastolic pressure (LVEDP) in resting dogs ([4]; 2 mg/kg/day sid p.o. plus furosemide, 3 weeks, pacing 210-240 bpm, versus placebo and enalapril): Significant improvements over both placebo and enalapril; Exercise tolerance ([4]; all treated animals, placebo group three out of six developed exercise intolerance): maintained exercise tolerance throughout the study; Heart failure class, NYHA scale (I-IV) ([4]; all treated animals, placebo group three out of six reached class III): class II
